Patent US5817646A, “Polar lipid composition of plant origin” (Laboratoires Inocosm, priority 1991, dated 1998)

Target: T1, human leukocytic elastase (HLE) (Homo sapiens, UniProt P08246)
T1 sequence (P08246 30-267): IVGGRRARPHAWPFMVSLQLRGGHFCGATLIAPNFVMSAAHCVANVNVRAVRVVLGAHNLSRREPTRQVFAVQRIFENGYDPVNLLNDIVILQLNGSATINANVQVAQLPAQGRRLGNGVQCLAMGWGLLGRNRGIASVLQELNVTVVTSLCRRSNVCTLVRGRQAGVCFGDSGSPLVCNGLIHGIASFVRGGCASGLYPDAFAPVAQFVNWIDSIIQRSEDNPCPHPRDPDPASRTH
Experiment: Inhibition of human leukocytic elastase, kinetics of p-nitroaniline release at 410 nm
Format: biochemical
Settings: read-out: percentage of inhibition of the anti-elastase activity after 10 min
Description: A test to ascertain the activity of a polar lipid mixture in accordance with the invention on the inhibition of a specific enzyme, human leukocytic elastase (HLE), was carried out at the Connective Tissue Laboratory of the CNRS at Cretail (France). HLE is able to destroy elastin and therefore cause cell aging. HLE also detrimentally effects the arterial walls.
The activity of the mixture in accordance with the invention was compared with that of oleic acid, the reference substance.
This test measures the inhibition of the enzymatic activity by different preparations tested by following the kinetics at 410 nm of the degradation of a substrate, S, corresponding essentially to elastin: Me-O-Suc-Ala2 -Pro-Val-pNa(N-Methoxy-succinyl-Ala-Ala-Pro-Val-p-Nitroanilide). In this test, changes in the concentration of p-Nitroaniline, released due to the effect of the activity of HLE on the substrate, S, is measured over time.
In order to carry out these tests:
either 0.1M Tris-Cl+0.01% Triton X-100 at pH 8
was used as the reaction buffer, B. […]
Spectrophotometer readings were taken at 410 nm relative to the p-Nitroaniline concentration and the results obtained were then transferred to Curves 1 to 5, which correspond to the cell samples of the same numbering. […]
On each of these curves, the time in min was recorded on the abscissa and the optical deviation, OD, read at 410 nm, was recorded on the ordinate. […]

Compound `CCCCCCCC/C=C\CCCCCCCC(=O)O` [Reference oleic acid, oleic acid] has an inhibition at 0.1 µg/mL (oleic acid at 0.1 μg/ml) of 36% and an inhibition at 1 µg/mL (oleic acid at 1.0 μg/ml) of 84%.
